Results taken from US20190031717A1, “MULTI-FUNCTIONAL FUSION POLYPEPTIDE, PREPARATION METHOD THEREOF, AND APPLICATION OF SAME” (NANJING ANJI BIOLOGICAL TECHNOLOGY CO., LTD, priority 2016, published 2019).

Assays:
[1] = test system: Pancreatic cancer; assay: MTT assay, tumor cells; format: cell-based, human; set-up: concentration or dose not given beside the values; conditions: 48 hours, mean ± SD
Method: (§1) A variety of human tumor cells were cultured in a 37° C., 5% (volume fraction) CO2 incubator to a density of 90% or more, collected by trypsinization, resuspended in a culture medium and counted under a microscope, and the cells were harvested. The concentration was adjusted to 2.0×10^4 cells/mL, the cell suspension was inoculated into a 96-well plate at 100 μL per well and cultured overnight at 37° C. in a 5% (volume fraction) CO2 incubator. After the cells were completely adhered, the polypeptides of the present invention were added as drug-administered groups, and a culture solution containing no drug was used as a blank control group, and the culture solution was diluted to each predetermined concentration. Each dilution was separately added to a 96-well plate at 100 μL per well and incubated for 48 hours at 37° C. in a 5% (volume fraction) CO2 incubator. 20 μL of 5 mg/mL MTT was added to each well of a 96-well plate and incubation was continued for 4 h. The medium was aspirated and dissolved in 100 μL of DMSO per well. The absorbance was measured with a microplate reader at a detection wavelength of 570 nm and a reference wavelength of 630 nm, and the growth inhibition rate was calculated as follows: tumor growth inhibition rate (%)=(1−absorbance value of the administered group/unadministered group absorbance value)×100%, and the experiment was repeated 3 times independently. The results obtained from the test were expressed as mean±standard deviation, and the tumor growth inhibition rate of the unadministered group was 0. The results in Table 7 indicate that the polypeptides of the present invention have a significant inhibitory effect on the growth of various tumors (FIG. 6).

[2] = test system: Colorectal cancer; assay: MTT assay, tumor cells; format: cell-based, human; set-up: concentration or dose not given beside the values; conditions: 48 hours, mean ± SD
Method: as §1

[3] = test system: Breast cancer; assay: MTT assay, tumor cells; format: cell-based, human; set-up: concentration or dose not given beside the values; conditions: 48 hours, mean ± SD
Method: as §1

[4] = test system: Head and neck cancer; assay: MTT assay, tumor cells; format: cell-based, human; set-up: concentration or dose not given beside the values; conditions: 48 hours, mean ± SD
Method: as §1

[5] = test system: Ovarian cancer; assay: MTT assay, tumor cells; format: cell-based, human; set-up: concentration or dose not given beside the values; conditions: 48 hours, mean ± SD
Method: as §1

[6] = test system: Liver cancer; assay: MTT assay, tumor cells; format: cell-based, human; set-up: concentration or dose not given beside the values; conditions: 48 hours, mean ± SD
Method: as §1

[7] = test system: sarcoma; assay: MTT assay, tumor cells; format: cell-based, human; set-up: concentration or dose not given beside the values; conditions: 48 hours, mean ± SD
Method: as §1

[8] = test system: Brain tumor; assay: MTT assay, tumor cells; format: cell-based, human; set-up: concentration or dose not given beside the values; conditions: 48 hours, mean ± SD
Method: as §1

[9] = test system: Prostate cancer; assay: MTT assay, tumor cells; format: cell-based, human; set-up: concentration or dose not given beside the values; conditions: 48 hours, mean ± SD
Method: as §1

[10] = test system: Kidney cancer; assay: MTT assay, tumor cells; format: cell-based, human; set-up: concentration or dose not given beside the values; conditions: 48 hours, mean ± SD
Method: as §1

[11] = test system: Gastric cancer; assay: MTT assay, tumor cells; format: cell-based, human; set-up: concentration or dose not given beside the values; conditions: 48 hours, mean ± SD
Method: as §1

[12] = test system: Uterine cancer; assay: MTT assay, tumor cells; format: cell-based, human; set-up: concentration or dose not given beside the values; conditions: 48 hours, mean ± SD
Method: as §1

[13] = test system: Cervical cancer; assay: MTT assay, tumor cells; format: cell-based, human; set-up: concentration or dose not given beside the values; conditions: 48 hours, mean ± SD
Method: as §1

[14] = test system: Bladder Cancer; assay: MTT assay, tumor cells; format: cell-based, human; set-up: concentration or dose not given beside the values; conditions: 48 hours, mean ± SD
Method: as §1

[15] = test system: Hemangioma; assay: MTT assay, tumor cells; format: cell-based, human; set-up: concentration or dose not given beside the values; conditions: 48 hours, mean ± SD
Method: as §1

[16] = test system: Esophageal cancer; assay: MTT assay, tumor cells; format: cell-based, human; set-up: concentration or dose not given beside the values; conditions: 48 hours, mean ± SD
Method: as §1

[17] = test system: Melanoma; assay: MTT assay, tumor cells; format: cell-based, human; set-up: concentration or dose not given beside the values; conditions: 48 hours, mean ± SD
Method: as §1

[18] = test system: Thyroid cancer; assay: MTT assay, tumor cells; format: cell-based, human; set-up: concentration or dose not given beside the values; conditions: 48 hours, mean ± SD
Method: as §1

[19] = test system: Large cell lung cancer; assay: MTT assay, lung cancer tumor cells; format: cell-based, human; set-up: concentration or dose not given beside the values; conditions: 48 h, mean ± SD
Method: (§2) The inhibition of the growth of human lung cancer tumor cells by the polypeptide of the present invention was examined by MTT assay. The lung cancer tumor cells were cultured in a 37° C., 5% (volume fraction) CO2 incubator to a density of 90% or more, and collected by trypsinization. The cells were resuspended in the culture medium and counted under a microscope to adjust the cell concentration to 2.0×10^4 cells/mL, the cell suspension was inoculated into a 96-well plate at 100 μL per well, and cultured overnight at 37° C. in a 5% (volume fraction) CO2 incubator. After the cells were completely adhered, the polypeptide of the present invention was added as a drug-administered group, and a culture solution containing no drug was used as a blank control group, and the culture solution was diluted to each predetermined concentration. Each dilution was separately added to a 96-well plate at 100 μL per well and incubated for 48 h at 37° C. in a 5% (volume fraction) CO2 incubator. 20 μL of 5 mg/mL MTT was added to each well of a 96-well plate, and incubation was continued for 4 hours. The medium was aspirated, and the cells were dissolved in 100 μL of DMSO per well. The absorbance was measured by a microplate reader at a detection wavelength of 570 nm and a reference wavelength of 630 nm, and the growth inhibition rate was calculated as follows: tumor growth inhibition rate (%)=(1−administered group absorbance value/unadministered group absorbance value)×100%, and the experiment was repeated 3 times independently. The results obtained by the test were expressed as mean±standard deviation. The results in Table 6 indicate that the polypeptides of the present invention have a good inhibitory effect on proliferation of a variety of human lung cancer tumors (FIG. 5).

[20] = test system: Small Cell Lung Cancer; assay: MTT assay, lung cancer tumor cells; format: cell-based, human; set-up: concentration or dose not given beside the values; conditions: 48 h, mean ± SD
Method: as §2

[21] = test system: Adenocarcinoma; assay: MTT assay, lung cancer tumor cells; format: cell-based, human; set-up: concentration or dose not given beside the values; conditions: 48 h, mean ± SD
Method: as §2

[22] = test system: Non-small cell lung cancer; assay: MTT assay, lung cancer tumor cells; format: cell-based, human; set-up: concentration or dose not given beside the values; conditions: 48 h, mean ± SD
Method: as §2

[23] = test system: Squamous cell carcinoma; assay: MTT assay, lung cancer tumor cells; format: cell-based, human; set-up: concentration or dose not given beside the values; conditions: 48 h, mean ± SD
Method: as §2

[24] = test system: Adenosquamous carcinoma; assay: MTT assay, lung cancer tumor cells; format: cell-based, human; set-up: concentration or dose not given beside the values; conditions: 48 h, mean ± SD
Method: as §2

[25] = test system: adenovirus concentrate; assay: Mouse pneumonia model, viral; format: in vivo, BALB/C mice; conditions: mean ± SD
Method: (§3) The mouse pneumonia model was successfully established by the nose-drop method. To build the mouse pneumonia model, BALB/C mice with a body mass of 16-22 g were selected and anesthetized pneumonia chain was prepared after anesthesia with ether on day 0, day 1, and day 2. Staphylococcal fluid, adenovirus concentrate, Mycoplasma pneumoniae, Chlamydia pneumoniae, protozoa, and pneumonia fungi were slowly dripped into the nasal cavity of the mice, so that they enter the tracheobronchial. During the operation process, care was exercised to prevent bacterial fluid from flowing into the esophagus, which leads to inactivation the bacterial fluid. After successful model establishment, the polypeptides of the present invention were administered, and the results were shown in Table 5. […] The results were expressed in average value±standard deviation.

[26] = test system: pneumonia fungi; assay: Mouse pneumonia model, fungal; format: in vivo, BALB/C mice; set-up: concentration or dose not given beside the values; conditions: mean ± SD
Method: as §3

[27] = test system: Mycoplasma pneumoniae; assay: Mouse pneumonia model, mycoplasma; format: in vivo, BALB/C mice; set-up: concentration or dose not given beside the values; conditions: mean ± SD
Method: as §3

[28] = test system: Chlamydia pneumoniae; assay: Mouse pneumonia model, chlamydia; format: in vivo, BALB/C mice; set-up: concentration or dose not given beside the values; conditions: mean ± SD
Method: as §3

[29] = test system: Pneumonia caused by lung infection; assay: Mouse pneumonia model, pneumonia caused by lung infection; format: in vivo, BALB/C mice; set-up: concentration or dose not given beside the values; conditions: mean ± SD
Method: as §3

[30] = test system: Staphylococcal fluid; assay: Mouse pneumonia model, bacterial; format: in vivo, BALB/C mice; set-up: concentration or dose not given beside the values; conditions: mean ± SD
Method: as §3

[31] = test system: protozoa; assay: Mouse pneumonia model, protozoal; format: in vivo, BALB/C mice; set-up: concentration or dose not given beside the values; conditions: mean ± SD
Method: as §3

Compound: CC(=O)O[C@@]12CO[C@@H]1C[C@H](O)[C@@]1(C)C(=O)[C@H](O)C3=C(C)[C@@H](OC(=O)[C@H](O)[C@@H](NC(=O)OC(C)(C)C)c4ccccc4)C[C@@](O)([C@@H](OC(=O)c4ccccc4)[C@H]21)C3(C)C [Docetaxel, reference compound]
- tumor growth inhibition rate, MTT Assay [1]: 49.42 ± 18.21%
- tumor growth inhibition rate, MTT Assay [2]: 57.20 ± 17.30%
- tumor growth inhibition rate, MTT Assay [3]: 61.44 ± 18.58%
- tumor growth inhibition rate, MTT Assay [4]: 32.59 ± 9.86%
- tumor growth inhibition rate, MTT Assay [5]: 60.97 ± 18.44%
- tumor growth inhibition rate, MTT Assay [6]: 48.95 ± 14.80%
- tumor growth inhibition rate, MTT Assay [7]: 44.26 ± 13.39%
- tumor growth inhibition rate, MTT Assay [8]: 45.90 ± 13.88%
- tumor growth inhibition rate, MTT Assay [9]: 54.25 ± 19.68%
- tumor growth inhibition rate, MTT Assay [10]: 40.23 ± 15.44%
- tumor growth inhibition rate, MTT Assay [11]: 43.57 ± 16.44%
- tumor growth inhibition rate, MTT Assay [12]: 52.33 ± 19.09%
- tumor growth inhibition rate, MTT Assay [13]: 50.54 ± 21.82%
- tumor growth inhibition rate, MTT Assay [14]: 34.82 ± 10.53%
- tumor growth inhibition rate, MTT Assay [15]: 68.47 ± 20.71%
- tumor growth inhibition rate, MTT Assay [16]: 44.16 ± 13.36%
- tumor growth inhibition rate, MTT Assay [17]: 38.17 ± 11.54%
- tumor growth inhibition rate, MTT Assay [18]: 42.03 ± 12.71%
- tumor growth inhibition rate, MTT Assay [19]: 52.69 ± 16.12%
- tumor growth inhibition rate, MTT Assay [20]: 42.16 ± 14.54%
- tumor growth inhibition rate, MTT Assay [21]: 52.54 ± 15.12%
- tumor growth inhibition rate, MTT Assay [22]: 55.50 ± 19.83%
- tumor growth inhibition rate, MTT Assay [23]: 39.78 ± 10.73%
- tumor growth inhibition rate, MTT Assay [24]: 35.87 ± 13.84%

Compound: Penicillin [reference compound]
- Inhibitory Effects on Various Pulmonary Infections [25]: 35.02 ± 15.58%
- Inhibitory Effects on Various Pulmonary Infections [26]: 35.13 ± 16.62%
- Inhibitory Effects on Various Pulmonary Infections [27]: 23.91 ± 14.27%
- Inhibitory Effects on Various Pulmonary Infections [28]: 28.10 ± 14.99%
- Inhibitory Effects on Various Pulmonary Infections [29]: 31.03 ± 18.46%
- Inhibitory Effects on Various Pulmonary Infections [30]: 26.52 ± 11.07%
- Inhibitory Effects on Various Pulmonary Infections [31]: 37.00 ± 20.45%
